Columns and labels:
[1] = molecular target: T1, Neuromedin-K receptor (Rattus norvegicus, UniProt P16177); test: […] for NK-3 receptor was determined in vitro using isolated rat portal vein.
T1 sequence (P16177 whole entry): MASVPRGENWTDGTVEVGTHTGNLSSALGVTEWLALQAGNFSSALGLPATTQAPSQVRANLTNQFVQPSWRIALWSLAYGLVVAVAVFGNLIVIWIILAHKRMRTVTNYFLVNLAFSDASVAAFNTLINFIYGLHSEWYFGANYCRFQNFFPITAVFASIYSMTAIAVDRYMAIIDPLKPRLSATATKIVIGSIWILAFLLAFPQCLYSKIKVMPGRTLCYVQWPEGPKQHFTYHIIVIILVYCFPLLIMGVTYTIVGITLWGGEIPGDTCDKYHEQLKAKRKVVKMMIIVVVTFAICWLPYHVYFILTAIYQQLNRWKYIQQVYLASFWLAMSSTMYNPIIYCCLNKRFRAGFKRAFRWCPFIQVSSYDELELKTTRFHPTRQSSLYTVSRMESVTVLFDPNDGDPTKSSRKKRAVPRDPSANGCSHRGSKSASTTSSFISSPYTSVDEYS

[2] = molecular target: T2, Substance-K receptor (Oryctolagus cuniculus, UniProt P79218); test: […] for NK-2 receptor was determined in vitro using isolated rabbit pulmonary artery.
T2 sequence (P79218 whole entry): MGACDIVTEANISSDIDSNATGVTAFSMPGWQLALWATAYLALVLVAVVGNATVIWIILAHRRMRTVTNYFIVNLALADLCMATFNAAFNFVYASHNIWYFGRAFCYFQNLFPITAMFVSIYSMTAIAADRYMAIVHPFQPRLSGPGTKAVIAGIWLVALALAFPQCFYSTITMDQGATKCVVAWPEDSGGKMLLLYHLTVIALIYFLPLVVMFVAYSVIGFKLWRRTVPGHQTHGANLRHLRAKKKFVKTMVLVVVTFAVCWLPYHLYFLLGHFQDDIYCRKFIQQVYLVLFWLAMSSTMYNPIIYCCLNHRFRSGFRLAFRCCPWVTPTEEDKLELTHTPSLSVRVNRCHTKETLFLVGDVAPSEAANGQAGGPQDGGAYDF

[3] = molecular target: T3, Substance-K receptor (Homo sapiens, UniProt P21452); test: Binding affinity for NK-2 receptor was determined in a radioligand binding assay using chinese hamster ovary cells.; assay type: cell-based
T3 sequence (P21452 whole entry): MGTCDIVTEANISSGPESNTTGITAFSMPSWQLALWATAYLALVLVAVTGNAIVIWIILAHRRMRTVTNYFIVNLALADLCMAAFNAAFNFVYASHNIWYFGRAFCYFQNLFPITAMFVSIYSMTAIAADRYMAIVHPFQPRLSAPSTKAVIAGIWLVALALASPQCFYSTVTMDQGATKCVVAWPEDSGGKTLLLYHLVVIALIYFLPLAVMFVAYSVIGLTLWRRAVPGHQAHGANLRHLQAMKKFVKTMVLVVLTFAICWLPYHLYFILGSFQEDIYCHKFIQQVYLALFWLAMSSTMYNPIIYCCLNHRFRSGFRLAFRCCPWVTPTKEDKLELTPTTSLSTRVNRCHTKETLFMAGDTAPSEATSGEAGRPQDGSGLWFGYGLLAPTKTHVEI

[4] = molecular target: Substance-P receptor (Homo sapiens, UniProt P25103); test: Binding affinity for NK-1 receptor was determined in a radioligand binding assay using IM9 human lymphoblastoma cell line.
[5] = test system: Cavia porcellus; test: Tested for the ability to inhibit substance P induced bronchoconstriction, in guinea pig, after intravenous administration. The inhibitory dose at 3 minutes, was reported.; assay type: functional; conditions: 0.05 h, read-out: ID50 (the source's name)
[6] = test system: Cavia porcellus; test: Tested for the ability to inhibit substance P induced bronchoconstriction in guinea pig and the dose that was effective even after 40 minutes of compound administration, was reported.; assay type: functional
[7] = species on record: Cavia porcellus; test: Inhibition of capsaicin-induced plasma extravasation in guinea pig bronchi; assay type: functional
[8] = molecular target: T1, Neuromedin-K receptor; test: Antagonistic potency for NK-3 receptor was determined in vitro, using isolated rat portal vein.; assay type: functional; conditions: read-out: pA2 (converted)
[9] = molecular target: T2, Substance-K receptor; test: Antagonistic potency for NK-2 receptor was determined in vitro, using isolated rabbit pulmonary artery.; assay type: functional; conditions: read-out: pA2 (converted)

Chain of Substance-P receptor (P25103 whole entry): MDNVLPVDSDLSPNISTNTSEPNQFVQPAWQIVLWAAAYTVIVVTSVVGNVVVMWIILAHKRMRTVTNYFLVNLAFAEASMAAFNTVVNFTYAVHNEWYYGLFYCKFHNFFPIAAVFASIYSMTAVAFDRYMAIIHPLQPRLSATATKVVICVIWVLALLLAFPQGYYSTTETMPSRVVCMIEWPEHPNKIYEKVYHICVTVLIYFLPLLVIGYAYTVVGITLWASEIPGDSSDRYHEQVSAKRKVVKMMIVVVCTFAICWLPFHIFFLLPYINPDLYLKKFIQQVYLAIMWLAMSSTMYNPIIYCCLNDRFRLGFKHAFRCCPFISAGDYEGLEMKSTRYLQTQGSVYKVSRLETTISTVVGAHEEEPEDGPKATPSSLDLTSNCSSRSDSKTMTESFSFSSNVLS

Row | SMILES | pA2 [1] | pA2 [2] | Ki [3] | Ki [4] | ED50 [5] | Effective dose [6] | Effective dose [7] | Kb [8] | Kb [9] | ED50 ([7]; read-out: ID50 (the source's name))
1 | CN(Cc1ccccc1)C(=O)[C@H](Cc1ccc2ccccc2c1)NC(=O)[C@H]1C[C@H](O)CN1C(=O)c1cn(CCCCc2nnn[nH]2)c2ccccc12 | 5 | 5.6 | 2.4 µM | – | – | – | – | – | – | –
2 | O=C(OCc1cc(C(F)(F)F)cc(C(F)(F)F)c1)[C@H](Cc1c[nH]c2ccccc12)NC(=O)[C@H]1C[C@H](O)CN1C(=O)c1cn(CCCCc2nnn[n-]2)c2ccccc12.[K+] | 5.5 | 5.2 | 4.2 µM | 2.4 nM | 0.05 µmol/kg | 0.5 mM | 26 µg/kg | – | – | –
3 | COc1ccccc1CN[C@H]1CCCN[C@H]1c1ccccc1 [CP-99994] | – | – | – | – | – | – | – | > 100 µM | > 100 µM | 0.014 mg/kg
4 | CC(=O)N[C@@H](Cc1c[nH]c2ccccc12)C(=O)OCc1cc(C(F)(F)F)cc(C(F)(F)F)c1 [L-732138] | – | – | – | – | – | – | – | 6.31 µM | 6.31 µM | –

Reference: ChEMBL document CHEMBL1130564, “The dipeptide neurokinin-1 receptor antagonist S19752 is a potent and long-acting inhibitor of bronchoconstriction when administered by aerosol to the guinea pig in vivo” (Bioorg Med Chem Lett, 1997)
